For assay [1], the system named is Mus musculus. Description: Effect on compound 48/80-induced histamine level in ddY mouse peritoneal cavity fluid assessed as histamine release at 10 mg/kg, ip administered 15 mins before compound 48/80 challenge measured after 10 mins by fluorometric assay relative to control. The format is functional. The conditions noted are these: route intraperitoneal.
Assay [2] concerns Mus musculus. Nature of the assay: Effect on compound 48/80-induced histamine level in ddY mouse peritoneal cavity fluid assessed as histamine release at 25 mg/kg, ip administered 15 mins before compound 48/80 challenge measured after 10 mins by fluorometric assay relative to control. The format is functional. The conditions noted are these: route intraperitoneal.

For `COc1c2ccoc2cc2oc(=O)ccc12` [BERGAPTEN], the Activity with Mus musculus [1] came to 108.2%; in the assay on Mus musculus [2], 55.4%.

Consider `COc1c2ccoc2c(OCC=C(C)C)c2oc(=O)ccc12` [PHELLOPTERIN], for which the Activity with Mus musculus [1] came to 109.8%; in the assay on Mus musculus [2], 137.7%.

With `CC(C)(O)[C@H](O)COc1c2ccoc2cc2oc(=O)ccc12` [OXYPEUCEDANIN HYDRATE], the results for the Activity in the assay on Mus musculus [1] and with Mus musculus [2] were 114.8% and 69.1%, respectively.

For `COc1c2ccoc2c(OC[C@@H](OC(C)=O)C(C)(C)O)c2oc(=O)ccc12`, the Activity is on record as 93.2% in the assay with Mus musculus [1] and 151% in the assay on Mus musculus [2].

With `COc1c2ccoc2c(OC[C@@H](O)C(C)(C)O)c2oc(=O)ccc12` [BYAKANGELICIN], the Activity in the assay on Mus musculus [1] worked out at 105.4%; in the assay on Mus musculus [2], 57%.

With `CC1(C)O[C@H]1COc1c2ccoc2cc2oc(=O)ccc12` [OXYPEUCEDANIN], the values for the Activity with Mus musculus [1] and in the assay on Mus musculus [2] were 142.6% and 136.1%, respectively.

The values above are taken from ChEMBL document CHEMBL1145678, “Histamine-release effectors from Angelica dahurica var. dahurica root” (1997).
